Data taken from patent US20240299376A1, “METHOD OF TREATING A CONDITION USING A […] EFFECTIVE DOSE OF 1-(1-OXO-1,2-DIHYDROISOQUINOLIN-5-YL)-5-(TRIFLUOROMETHYL)-N-(2-(TRIFLUOROMETHYL)PYRIDIN-4-YL)-1H-PYRAZOLE-4-CARBOXAMIDE” (Janssen Pharmaceutica NV, priority 2021, published 2024).

Experiments:
[1] = Pharmacokinetic modeling and simulations to predict the human dose; details: corresponds to mouse trough at 10 mg/kg BID after accounting for protein binding difference mice/human
Method: According to the tested scenario, the minimum predicted efficacious dose is approximately 110 mg given once daily.
The pharmacokinetic modeling was used based on available non-clinical pharmacokinetic data and allometric scaling. In addition, modeling using GastroPlus and SimCYP was also used to guide PK parameter prediction.

[2] = Single oral dose plasma PK in fasted dogs; type: in vivo, dog; details: for bioavailability / AUC(0-inf) / Cmax / Tmax / AUC(0-t) / half-life: beagle, dog, plasma
Source text: With the suspension formulation the double-peak phenomenon is even more pronounced.
As observed in rats, dose escalation in dogs resulting in proportional or dose-related exposure with the PEG400 solution was unsuccessful in identifying a vehicle suitable for toxicology studies.

[3] = Serum concentration after 28 days of oral dosing in male OCI-LY3 tumor-bearing NSG mice; type: in vivo; details: mouse, mean; for concentration at 1 h: 1 h post last dose; for concentration at 2 h: 2 h post last dose; for concentration at 4 h: 4 h post last dose; for concentration at 8 h: 8 h post last dose; for concentration at 12 h: 12 h post last dose; for concentration at 0.25 h: 0.25 h post last dose
Method: For study 3, animals were randomly assigned into treatment groups, when the OCI-LY3 mean tumor volume was 164 mm^3 (Day 32 post-tumor cell implantation). Treatment was initiated on the day of randomization (Day 32). After 28 days of treatment on Day 60, serum was collected at 2, 4, and 12 hours post last dose for the bid treated groups or 2, 4 and 24 hours post last dose for qd treated groups in cohorts of 5 mice. Blood was collected from the retro-orbital sinus and submitted for bioanalytical analysis.
Serum samples were collected at 1, 2, 4, 8, and 12 hours post dose (for twice-daily-treated animals) or 24 hours (for once-daily-treated animals).

[4] = system: TMD8 (CD79b/Myd88/A20 mut); assay: Anti-proliferative activity, DLBCL cell line panel; type: cell-based; details: Homo sapiens, TMD8, 192 h; antiproliferation after 8 days of treatment
Method: (§1) Four ABC-DLBCL cell lines with activating mutations in the canonical NFκB pathway were evaluated (OCI-LY3 (CARD11, MYD88 & A20 mutations), TMD8, HBL1, and OCI-LY10 (CD79B & MYD88 mutations)), which are generally sensitive to NF-κB pathway inhibition. None of the GCB-DLBCL cell lines harbor mutations in the NF-κB pathway. The GCB-DLBCL cell lines served as a negative control to exclude compounds with general cytotoxic effects.
(§2) At concentrations ≥20 μM general cytotoxicity was observed.

OCT-Ly7 (no NF-κB mut) = assay: Anti-proliferative activity, DLBCL cell line panel; type: cell-based; details: 192 h; antiproliferation after 8 days of treatment
Method: as §1, §2

[5] = system: HBL1 (CD79b/Myd88/A20 mut); assay: Anti-proliferative activity, DLBCL cell line panel; type: cell-based; details: HBL1, 192 h; antiproliferation after 8 days of treatment
Method: as §1, §2

[6] = system: OCI-LY3 (Myd88/CARD11 A20 mut); assay: Anti-proliferative activity, DLBCL cell line panel; type: cell-based; details: Homo sapiens
Method: as §1, §2

OCI-Ly1 (no NF-κB mut) = assay: Anti-proliferative activity, DLBCL cell line panel; type: cell-based; details: Homo sapiens, OCI-Ly1, 192 h; antiproliferation after 8 days of treatment
Method: as §1, §2

[7] = female, po, 100 mg/kg, 2F, 100 mg/kg PO, 100% PEG400 solution, Study 7
[8] = female, po, 280 mg/kg, 2F, 280 mg/kg PO, 100% PEG400 solution, Study 7
[9] = male, po, 5 mg/kg, 3M (N = 2 used), 5 mg/kg PO, 100% PEG400 solution, Study 1
[10] = male, po, 5 mg/kg, 3M, 5 mg/kg PO, 0.5% HPMC suspension, Study 4
[11] = male, po, 5 mg/kg, 3M, 5 mg/kg PO, -ZAF salt nanosuspension (HPMC:DOSS suspension), Study 5
[12] = male, po, 20 mg/kg, 3M, 20 mg/kg PO, 0.5% HPMC suspension, Study 2
[13] = male, po, 20 mg/kg, 3M, 20 mg/kg PO, 0.5% HPMC suspension, Study 4
[14] = male, po, 20 mg/kg, 3M, 20 mg/kg PO, 100% PEG400 solution, Study 3
[15] = male, po, 20 mg/kg, 3M, 20 mg/kg PO, -ZAF salt nanosuspension (HPMC:DOSS suspension), Study 5
[16] = male, po, 22.5 mg/kg, 3M, 22.5 mg/kg PO, PEG400/PVP VA 90:10 solution, Study 6

## O=C(Nc1ccnc(C(F)(F)F)c1)c1cnn(-c2cccc3c(=O)[nH]ccc23)c1C(F)(F)F [Compound A, 1-(1-oxo-1,2-dihydroisoquinolin-5-yl)-5-(trifluoromethyl)-N-[2-(trifluoromethyl)pyridin-4-yl]-1H-pyrazole-4-carboxamide]
[1]
  Ctrough at steady state targeted in humans: 4640 ng/mL
[2]; Study 7, doses of 100, 280, and 560 mg/kg, PEG400 solution
  increase of Cmax or AUC with dose: ≤ 25%
[2]; po, 5 mg/kg, 5 mg/kg PO, -ZAF salt nanosuspension (HPMC:DOSS suspension), Study 5
  bioavailability: 12 to 69%
[2]; po, 20 mg/kg, 20 mg/kg PO, 0.5% HPMC suspension, Study 4
  bioavailability: 7 to 89%
[2]; po, 20 mg/kg, 20 mg/kg PO, -ZAF salt nanosuspension (HPMC:DOSS suspension), Study 5
  bioavailability: 6.7%
[2]; po, 22.5 mg/kg, 22.5 mg/kg PO, PEG400/PVP VA 90:10 solution, Study 6
  bioavailability: > 100%
[2]; po, 560 mg/kg, 560 mg/kg PO, 100% PEG400 solution, Study 7, N = 1
  AUC(0-inf): 1760 µg·h/mL
[2]; [7]
  AUC(0-inf): 1360 µg·h/mL
  Cmax: 24300 ng/mL
  Tmax: 15.5 h
[2]; female, po, 100 mg/kg, 2F, 100 mg/kg PO, 100% PEG400 solution, Study 7, Tlast = 96 hours
  AUC(0-t): 1250 µg·h/mL
[2]; [8]
  AUC(0-inf): 1680 µg·h/mL
  Cmax: 30600 ng/mL
[2]; female, po, 280 mg/kg, 2F, 280 mg/kg PO, 100% PEG400 solution, Study 7, Tlast = 96 hours
  AUC(0-t): 1510 µg·h/mL
[2]; female, po, 280 mg/kg, 2F, 280 mg/kg PO, 100% PEG400 solution, Study 7, median
  Tmax: 24 h
[2]; female, po, 280 mg/kg, 2F, 280 mg/kg PO, PEG400/PVP VA 90:10 solution, Study 7
  Cmax: 106000 ng/mL
[2]; female, po, 280 mg/kg, 2F, 280 mg/kg PO, PEG400/PVP VA 90:10 solution, Study 7, Tlast = 96 hours
  AUC(0-t): 1970 µg·h/mL
[2]; female, po, 280 mg/kg, 2F, 280 mg/kg PO, PEG400/PVP VA 90:10 solution, Study 7, median
  Tmax: 24 h
[2]; female, po, 480 mg/kg, 2F, 480 mg/kg PO, PEG400/PVP VA 90:10 solution, Study 7
  Cmax: 76600 ng/mL
[2]; female, po, 480 mg/kg, 2F, 480 mg/kg PO, PEG400/PVP VA 90:10 solution, Study 7, Tlast = 96 hours
  AUC(0-t): 1510 µg·h/mL
[2]; female, po, 480 mg/kg, 2F, 480 mg/kg PO, PEG400/PVP VA 90:10 solution, Study 7, median
  Tmax: 27.5 h
[2]; female, po, 560 mg/kg, 2F, 560 mg/kg PO, 100% PEG400 solution, Study 7
  Cmax: 31800 ng/mL
[2]; female, po, 560 mg/kg, 2F, 560 mg/kg PO, 100% PEG400 solution, Study 7, Tlast = 96 hours
  AUC(0-t): 2010 µg·h/mL
[2]; female, po, 560 mg/kg, 2F, 560 mg/kg PO, 100% PEG400 solution, Study 7, median
  Tmax: 24 h
[2]; from 22.5 to 280 mg/kg, PVP VA in PEG400 solution
  increase in Cmax and AUC: approximately 5 fold
[2]; male, oral, 5 mg/kg, 5 mg/kg PO, 100% PEG400 solution, Study 1, calculated using the IV data from Study 1
  bioavailability: > 100%
[2]; male, po, 5 mg/kg, 5 mg/kg PO, 0.5% HPMC suspension, Study 4
  bioavailability: 14 to 66%
[2]; [9]
  AUC(0-inf): 146 µg·h/mL
  Cmax: 6150 ng/mL
  Tmax: 2 h
  half-life: 17.3 h
[2]; male, po, 5 mg/kg, 3M (N = 2 used), 5 mg/kg PO, 100% PEG400 solution, Study 1, Tlast = 48 hours
  AUC(0-t): 143 µg·h/mL
[2]; [10]
  AUC(0-inf): 30.7 µg·h/mL
  AUC(0-t): 43.7 µg·h/mL
  Cmax: 2030 ng/mL
  Tmax: 9 h
  half-life: 21.8 h
[2]; [11]
  AUC(0-inf): 26.4 µg·h/mL
  AUC(0-t): 43.7 µg·h/mL
  Cmax: 1450 ng/mL
  Tmax: 9.33 h
  half-life: 11.5 h
[2]; male, po, 20 mg/kg, 20 mg/kg PO, 0.5% HPMC suspension, Study 2, N = 1 animal with low exposure
  AUC(0-inf): 15.6 µg·h/mL
[2]; male, po, 20 mg/kg, 20 mg/kg PO, 100% PEG400 solution, Study 3
  bioavailability: 33 to 72%
[2]; [12]
  Cmax: 4010 ng/mL
  Tmax: 16.7 h
  half-life: 17.8 h
[2]; male, po, 20 mg/kg, 3M, 20 mg/kg PO, 0.5% HPMC suspension, Study 2, Tlast = 72 hours
  AUC(0-t): 153 µg·h/mL
[2]; [13]
  AUC(0-inf): 31.8 µg·h/mL
  AUC(0-t): 160 µg·h/mL
  Cmax: 4080 ng/mL
  Tmax: 16.7 h
  half-life: 14.3 h
[2]; [14]
  AUC(0-inf): 224 µg·h/mL
  Cmax: 5770 ng/mL
  Tmax: 8.33 h
  half-life: 18.6 h
[2]; male, po, 20 mg/kg, 3M, 20 mg/kg PO, 100% PEG400 solution, Study 3, Tlast = 96 hours
  AUC(0-t): 215 µg·h/mL
[2]; [15]
  AUC(0-inf): 87 µg·h/mL
  AUC(0-t): 111 µg·h/mL
  Cmax: 3510 ng/mL
  Tmax: 9 h
  half-life: 16.6 h
[2]; [16]
  AUC(0-inf): 757 µg·h/mL
  Cmax: 21000 ng/mL
  Tmax: 1.25 h
  half-life: 14.1 h
[2]; male, po, 22.5 mg/kg, 3M, 22.5 mg/kg PO, PEG400/PVP VA 90:10 solution, Study 6, Tlast = 96 hours
  AUC(0-t): 741 µg·h/mL
[3]; 1 mg/kg BID PO 28 days
  concentration at 1 h: 550 ng/mL
  concentration at 2 h: 449 ng/mL
  concentration at 4 h: 526 ng/mL
  concentration at 8 h: 721 ng/mL
  concentration at 12 h: 307 ng/mL
[3]; 3 mg/kg BID PO 28 days
  concentration at 0.25 h: 1020 ng/mL
  concentration at 2 h: 1560 ng/mL
  concentration at 4 h: 1150 ng/mL
  concentration at 12 h: 1020 ng/mL
[3]; 3 mg/kg BID PO 28 days, N = 2
  concentration at 1 h: 1940 ng/mL
  concentration at 8 h: 2680 ng/mL
[3]; 10 mg/kg BID PO 28 days
  concentration at 0.25 h: 4050 ng/mL
  concentration at 1 h: 5080 ng/mL
  concentration at 2 h: 4600 ng/mL
  concentration at 4 h: 6250 ng/mL
  concentration at 8 h: 5500 ng/mL
  concentration at 12 h: 4170 ng/mL
[3]; 30 mg/kg BID PO 28 days
  concentration at 0.25 h: 5970 ng/mL
  concentration at 1 h: 11400 ng/mL
  concentration at 2 h: 12300 ng/mL
  concentration at 4 h: 10400 ng/mL
  concentration at 8 h: 14700 ng/mL
  concentration at 12 h: 9000 ng/mL
[3]; 60 mg/kg QD PO 28 days
  concentration at 1 h: 9270 ng/mL
  concentration at 2 h: 16000 ng/mL
  concentration at 4 h: 11400 ng/mL
[3]; 60 mg/kg QD PO 28 days, 24 h post last dose
  concentration at 24 h: 2510 ng/mL
[3]; 100 mg/kg BID PO 28 days
  concentration at 0.25 h: 16500 ng/mL
  concentration at 1 h: 21200 ng/mL
  concentration at 2 h: 21600 ng/mL
  concentration at 4 h: 12800 ng/mL
  concentration at 8 h: 20500 ng/mL
  concentration at 12 h: 10300 ng/mL
[4]
  IC50: 635 nM
OCT-Ly7 (no NF-κB mut)
  IC50: > 10000 nM
[5]
  IC50: 547 nM
[6]; OCI-Ly3, 192 h, antiproliferation after 8 days of treatment
  IC50: 496 nM
[6]; Proliferation, OCI-LY3
  IC50: 496 ± 262 nM
OCI-Ly1 (no NF-κB mut)
  IC50: > 10000 nM
